Measured values: patent US20060252930A1 (priority 2003, published 2006)
Values joined by “and” are separate entries in the source; they are usually repeats but may differ in a detail not shown here. Equal values may be shown once. Read-outs that look alike come from different tables or passages of the source.

Legend:
[1] = test system: Candida albicans ATCC 64548; experiment: Enhancing activity of azole antifungal agent, yeast susceptibility test NCCLS M27-A; type: cell-based; details: for enhancing action of the activity of azole antifungal agent (in words): C. albicans ATCC64548, summary statement; for Ratio (enhancing activity): IC50 without addition set as 1.0
Protocol: (§1) Candida albicans ATCC 64548, fluconazole resistant Candida albicans ATCC 64550 and Aspergillus niger ATCC 6275 were used as test organisms.
(§2) Enhancing activity of azole antifungal agent on Candida albicans ATCC 64548 and ATCC 64550 was determined by yeast susceptibility test method, National Committee for Clinical Standard (NCCLS) Standard Method M27-A. Each suspension of inoculating strain was spread over YM agar medium (0.5% yeast extract, 0.5% malt extract, 0.5% peptone, 1% glucose and 1.5% agar) and cultured at 35° C. for 36 hours. Five grown colonies with a diameter 1 mm or more were collected and the colonies were suspended in physiological saline 5 ml. The suspension was further diluted with physiological saline to prepare the test microorganism suspension having McFarland transmittance 0.5. RPMI 1640 medium 70 μl was added into 96 well plastic plate (Corning Inc., U.S.). […] Finally, the test microorganism suspension 100 μl was added and incubated at 35° C. for 24 hours. […] When IC50 value without addition of FKI-1366 substance A, FKI-1366 substance B or FKI-1366 substance C was set as 1.0, a ratio of IC50 with addition of FKI-1366 substance A, FKI-1366 substance B or FKI-1366 substance C was determined as the enhancing activity.

[2] = test system: Aspergillus niger ATCC 6275; experiment: Enhancing activity of azole antifungal agent, susceptibility test for conidiogenous fungi NCCLS M38-P (Alamar Blue); type: cell-based; details: for enhancing action of the activity of azole antifungal agent (in words): Aspergillus niger ATCC 6275, summary statement
Protocol: as §1
Enhancing activity of azole antifungal agent on Aspergillus niger ATCC 6275 was determined by the drug susceptibility test method for conidiogenous fungi proposed by NCCLS (M38-P). Spores of the strain of Aspergillus niger ATCC 6275 were suspended in the physiological saline to maintain a value at OD 530 nm being 0.09-0.11. The suspension was further diluted 100 times with PRMI1640 medium to prepare inoculating microorganism solution. […] Further, FKI-1366 substance A, FKI-1366 substance B or FKI-1366 substance C, 10 μl, each of which was prepared for maintaining the final concentration of 2.5, 5.0 and 10 μg/ml, was added. Finally, the test microorganism suspension 80 μl was added. Alamar Blue solution (Asahi Glass Co., Japan) 20 μl, a coloring reagent, was added thereto and incubated at 35° C. for 24 hours. […] When IC50 value without addition of FKI-1366 substance A, FKI-1366 substance B or FKI-1366 substance C was set as 1.0, a ratio of IC50 with addition of FKI-1366 substance A, FKI-1366 substance B or FKI-1366 substance C was determined as the enhancing activity.

Solubility in solvents = type: physicochemical
[3] = test system: fluconazole resistant Candida albicans ATCC 64550; type: cell-based; details: for Ratio (enhancing activity): IC50 without addition set as 1.0; for enhancing action of the activity of azole antifungal agent (in words): fluconazole resistant C. albicans ATCC64550, summary statement
Protocol: as §1, §2

[4] = Table 1, miconazole + FKI-1366 substance 0.5 μg/ml
[5] = Table 1, miconazole + FKI-1366 substance 1.0 μg/ml
[6] = Table 1, miconazole + FKI-1366 substance 2.0 μg/ml
[7] = Table 2 (fluconazole) + FKI-1366 substance 0.5 μg/ml
[8] = Table 2 (fluconazole) + FKI-1366 substance 1.0 μg/ml
[9] = Table 2 (fluconazole) + FKI-1366 substance 2.0 μg/ml
[10] = Table 1, miconazole + FKI-1366 substance 2.5 μg/ml, IC50 without addition set as 1.0
[11] = Table 1, miconazole + FKI-1366 substance 5.0 μg/ml, IC50 without addition set as 1.0
[12] = Table 1, miconazole + FKI-1366 substance 10 μg/ml, IC50 without addition set as 1.0
[13] = Table 2 (fluconazole) + FKI-1366 substance 2.5 μg/ml, IC50 without addition set as 1.0
[14] = Table 2 (fluconazole) + FKI-1366 substance 5.0 μg/ml, IC50 without addition set as 1.0
[15] = Table 2 (fluconazole) + FKI-1366 substance 10 μg/ml, IC50 without addition set as 1.0
[16] = DMSO, methanol, chloroform and ethyl acetate

CC(C)C1OC(=O)C(Cc2ccccc2)N(C)C(=O)C(C(C)C)OC(=O)C(Cc2ccccc2)N(C)C(=O)C(C(C)C)OC(=O)C(Cc2ccccc2)NC1=O (stereo not shown) [FKI-1366 substance A]
enhancing action of the activity of azole antifungal agent (in words) [1]: enhancing action | Ratio (enhancing activity) [1, 4]: 1.0 | Ratio (enhancing activity) [1, 5]: 1.4 | Ratio (enhancing activity) [1, 6]: >55 | Ratio (enhancing activity) [1, 7]: 1.0 | Ratio (enhancing activity) [1, 8]: 1.4 | Ratio (enhancing activity) [1, 9]: >55 | enhancing action of the activity of azole antifungal agent (in words) [2]: enhancing action | Ratio (enhancing activity) [2, 10]: 5.5 | Ratio (enhancing activity) [2, 11]: 9.6 | Ratio (enhancing activity) [2, 12]: 10.9 | Ratio (enhancing activity) [2, 13]: 5.5 | Ratio (enhancing activity) [2, 14]: 9.6 | Ratio (enhancing activity) [2, 15]: 10.9 | Solubility in solvents (Solubility in solvents; [16]): Soluble | Solubility in solvents (Solubility in solvents; water and n-hexane): Slightly soluble | Ratio (enhancing activity) [3, 4]: 1.2 | Ratio (enhancing activity) [3, 5]: 5.0 | Ratio (enhancing activity) [3, 6]: >60 | Ratio (enhancing activity) [3, 7]: 1.2 | Ratio (enhancing activity) [3, 8]: 5.0 | Ratio (enhancing activity) [3, 9]: >60 | enhancing action of the activity of azole antifungal agent (in words) [3]: enhancing action

CC(C)CC1NC(=O)C(C(C)C)OC(=O)C(Cc2ccccc2)N(C)C(=O)C(C(C)C)OC(=O)C(Cc2ccccc2)N(C)C(=O)C(C(C)C)OC1=O (stereo not shown) [FKI-1366 substance B]
enhancing action of the activity of azole antifungal agent (in words) [1]: enhancing action | Ratio (enhancing activity) [1, 4]: 1.7 | Ratio (enhancing activity) [1, 5]: 6.0 | Ratio (enhancing activity) [1, 6]: >55 | Ratio (enhancing activity) [2]: 1.8 and 2.4 and 3.5 | enhancing action of the activity of azole antifungal agent (in words) [2]: enhancing action | Ratio (enhancing activity) [2, 10]: 1.8 | Ratio (enhancing activity) [2, 11]: 2.4 | Ratio (enhancing activity) [2, 12]: 3.5 | Solubility in solvents (Solubility in solvents; [16]): Soluble | Solubility in solvents (Solubility in solvents; water and n-hexane): Slightly soluble | Ratio (enhancing activity) [3, 4]: 1.4 | Ratio (enhancing activity) [3, 5]: 4.2 | Ratio (enhancing activity) [3, 6]: >60 | Ratio (enhancing activity) [3, 7]: 1.4 | Ratio (enhancing activity) [3, 8]: 4.2 | Ratio (enhancing activity) [3, 9]: >60 | enhancing action of the activity of azole antifungal agent (in words) [3]: enhancing action

CC(C)CC1OC(=O)C(Cc2ccccc2)N(C)C(=O)C(C(C)C)OC(=O)C(Cc2ccccc2)N(C)C(=O)C(C(C)C)OC(=O)C(Cc2ccccc2)N(C)C1=O (stereo not shown) [FKI-1366 substance C]
enhancing action of the activity of azole antifungal agent (in words) [1]: enhancing action | Ratio (enhancing activity) [1, 4]: 1.0 | Ratio (enhancing activity) [1, 5]: 2.5 | Ratio (enhancing activity) [1, 6]: >55 | Ratio (enhancing activity) [1, 7]: 1.0 | Ratio (enhancing activity) [1, 8]: 2.5 | Ratio (enhancing activity) [1, 9]: >55 | enhancing action of the activity of azole antifungal agent (in words) [2]: enhancing action | Ratio (enhancing activity) [2, 10]: 5.2 | Ratio (enhancing activity) [2, 11]: 8.0 | Ratio (enhancing activity) [2, 12]: 11.0 | Ratio (enhancing activity) [2, 13]: 5.2 | Ratio (enhancing activity) [2, 14]: 8.0 | Ratio (enhancing activity) [2, 15]: 11.0 | Solubility in solvents (Solubility in solvents; [16]): Soluble | Solubility in solvents (Solubility in solvents; water and n-hexane): Slightly soluble | Ratio (enhancing activity) [3, 4]: 1.0 | Ratio (enhancing activity) [3, 5]: 1.1 | Ratio (enhancing activity) [3, 6]: 3.9 | Ratio (enhancing activity) [3, 7]: 1.0 | Ratio (enhancing activity) [3, 8]: 1.1 | Ratio (enhancing activity) [3, 9]: 3.9 | enhancing action of the activity of azole antifungal agent (in words) [3]: enhancing action
